# Data: the supplement of paper PMC11061612
# Experiments:
# [1] = test system: HPAF-II (Pancreatic Carcinoma); test: combination Emax (second highest fraction inhibited in the dose matrix, 72 h); higher = more inhibition; extreme values may be limits of the assay
# In short: (§1)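 Bliss excess equals the observed combination effect minus the expected value EA + EB − EA·EB, where EA and EB are the effects of each agent alone. Combination Emax is the second-highest inhibition within the matrix. Inhibition was scaled from CellTiter-Glo 2.0 luminescence, with 0 set by vehicle wells and 1 by blank wells, after 72 hours of two-drug dosing of cells plated in 1536-well plates.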
# [2] = test system: NAMALWA (Burkitt's Lymphoma); test: Bliss excess, mean over the matrix (fraction); higher = more synergy
# In short: as §1
# [3] = test system: RCC-JW (Kidney Carcinoma); test: as above
# In short: as §1
# [4] = test system: HPAF-II (Pancreatic Carcinoma); test: as above
# In short: as §1
# [5] = test system: P30-OHK (B-Lymphoblastic Leukemia); test: as above
# In short: as §1
# ES6 (Ewing's Sarcoma) = test: as above
# In short: as §1
# KALS-1 (Glioblastoma) = test: as above
# In short: as §1
# [6] = test system: MOLP-8 (Plasma Cell Myeloma); test: as above
# In short: as §1
# [7] = test system: KP-4 (Pancreatic Carcinoma); test: as above
# In short: as §1
# [8] = test system: C-33-A (Cervical Carcinoma); test: as above
# In short: as §1
# GAK (Melanoma) = test: as above
# In short: as §1
# UACC-257 (Melanoma) = test: as above
# In short: as §1
# [9] = test system: HT-1080 (Other Solid Carcinomas); test: as above
# In short: as §1
# [10] = test system: COR-L88 (Small Cell Lung Carcinoma); test: as above
# In short: as §1
# [11] = test system: MS-1 (Small Cell Lung Carcinoma); test: as above
# In short: as §1
# [12] = test system: SKG-IIIa (Cervical Carcinoma); test: as above
# In short: as §1
SMILES,combination Emax [1],Bliss excess [2],Bliss excess [3],Bliss excess [4],Bliss excess [5],Bliss excess (ES6 (Ewing's Sarcoma)),Bliss excess (KALS-1 (Glioblastoma)),Bliss excess [6],Bliss excess [7],Bliss excess [8],Bliss excess (GAK (Melanoma)),Bliss excess (UACC-257 (Melanoma)),Bliss excess [9],Bliss excess [10],Bliss excess [11],Bliss excess [12]
"CC(=O)c1c(C)c2cnc(Nc3ccc(N4CCNCC4)cn3)nc2n(C2CCCC2)c1=O [Palbociclib] + CC1(C)CCC(CN2CCN(c3ccc(C(=O)NS(=O)(=O)c4ccc(NCC5CCOCC5)c([N+](=O)[O-])c4)c(Oc4cnc5[nH]ccc5c4)c3)CC2)=C(c2ccc(Cl)cc2)C1 [Venetoclax] (first compound max 10 µM, 7x7, partner max 1 µM)",0.0506,-0.0648,-0.0539,-0.034,0.126,-0.0387,-0.0396,0.0278,-0.104,-0.0474,-0.034,-0.0479,-0.0573,-0.0764,-0.0827,-0.0667
"CC(=O)c1c(C)c2cnc(Nc3ccc(N4CCNCC4)cn3)nc2n(C2CCCC2)c1=O [Palbociclib] + Cc1c2c(nn1C)CSCc1cc(n(C)n1)CSc1cc(c3ccccc3c1)OCCCc1c(C(=O)O)n(C)c3c-2c(Cl)ccc13 [AZD5991] (first compound max 10 µM, 7x7, partner max 1 µM)",0.142,-0.0139,-0.0306,-0.0186,0.0418,-0.0326,-0.0609,0.0347,-0.0249,-0.0163,-0.0234,-0.026,-0.0592,0.0122,-0.0451,-0.0489
"CC(=O)c1c(C)c2cnc(Nc3ccc(N4CCNCC4)cn3)nc2n(C2CCCC2)c1=O [Palbociclib] + Cn1cnc2c(F)c(Nc3ccc(Br)cc3Cl)c(C(=O)NOCCO)cc21 [Selumetinib] (first compound max 10 µM, 7x7, partner max 10 µM)",0.629,-0.0123,-0.0397,-0.0337,-0.0089,0.0235,-0.0353,0.0926,-0.0235,0.0164,0.0221,-0.0087,-0.0519,-0.026,-0.0601,-0.0394
"C[C@@H](c1ccc2nccn2c1)n1nnc2ncc(-c3cnn(C)c3)nc21 [Savolitinib] + CC1(C)CCC(CN2CCN(c3ccc(C(=O)NS(=O)(=O)c4ccc(NCC5CCOCC5)c([N+](=O)[O-])c4)c(Oc4cnc5[nH]ccc5c4)c3)CC2)=C(c2ccc(Cl)cc2)C1 [Venetoclax] (first compound max 1 µM, 7x7, partner max 1 µM)",0.131,-0.0098,-0.0343,-0.018,-0.0198,-0.0344,-0.0571,-0.0194,-0.0556,-0.0466,-0.0762,-0.0766,-0.0676,-0.021,-0.0098,-0.0546
"C[C@@H](c1ccc2nccn2c1)n1nnc2ncc(-c3cnn(C)c3)nc21 [Savolitinib] + Cc1c2c(nn1C)CSCc1cc(n(C)n1)CSc1cc(c3ccccc3c1)OCCCc1c(C(=O)O)n(C)c3c-2c(Cl)ccc13 [AZD5991] (first compound max 1 µM, 7x7, partner max 1 µM)",0.125,-0.05,-0.0354,-0.0163,0.0046,-0.0384,-0.0411,-0.0219,-0.0204,-0.0084,0.0201,-0.0194,-0.0475,-0.0019,-0.0062,-0.0554
"Cn1cnc2c(F)c(Nc3ccc(Br)cc3Cl)c(C(=O)NOCCO)cc21 [Selumetinib] + C=CCn1c(=O)c2cnc(Nc3ccc(N4CCN(C)CC4)cc3)nc2n1-c1cccc(C(C)(C)O)n1 [AZD1775] (first compound max 10 µM, partner max 1 µM)",0.728,-0.0104,-0.0542,0.039,-0.0789,-0.0564,-0.0755,0.0535,-0.0377,0.021,-0.008,0.0014,-0.0299,-0.011,-0.0347,-0.0733
"Cn1cnc2c(F)c(Nc3ccc(Br)cc3Cl)c(C(=O)NOCCO)cc21 [Selumetinib] + CC(C)n1c(=O)n(C)c2cnc3cc(F)c(-c4ccc(OCCCN5CCCCC5)nc4)cc3c21 [AZD1390] (first compound max 10 µM, 7x7, partner max 0.3 µM)",0.64,-0.0102,-0.051,0.0088,-0.0043,-0.0639,-0.0115,-0.0274,-0.0571,0.0134,-0.0415,-0.0099,-0.0697,-0.0086,-0.02,-0.0444
"Cn1cnc2c(F)c(Nc3ccc(Br)cc3Cl)c(C(=O)NOCCO)cc21 [Selumetinib] + CCN(CCO)CCCOc1ccc2c(Nc3cc(CC(=O)Nc4cccc(F)c4)[nH]n3)ncnc2c1 [AZD2811] (first compound max 10 µM, 7x7, partner max 1 µM)",0.682,0.0244,-0.0464,0.0129,-0.0123,-0.0508,-0.0093,-0.017,0.0217,0.0162,-0.069,0.0212,-0.0315,0.0014,-0.0261,-0.0486
"Cn1cnc2c(F)c(Nc3ccc(Br)cc3Cl)c(C(=O)NOCCO)cc21 [Selumetinib] + C[C@@H]1COCCN1C2=NC(=NC(=C2)C3(CC3)[S@](=N)(=O)C)C4=C5C=CNC5=NC=C4 [AZD6738] (first compound max 10 µM, 7x7, partner max 10 µM)",0.768,-0.0083,-0.0393,0.0119,0.012,-0.043,-0.0479,0.0551,-0.0712,0.0486,-0.0003,0.047,0.0553,-0.0124,-0.0521,-0.0275
